Key:
lactic dehydrogenase = experiment: Lactic dehydrogenase level in liver; assay type: in vivo, rat; conditions: 3-MC 2.5 mg intravenous; Fig. 1
[1] = Solubility of hydrocarbons in sesame oil; conditions: room temperature; approximately
adrenal cortex [2] = conditions: cited from earlier work
adrenal cortex [3] = experiment: Induced protection of adrenal against 7,12-DMBA; assay type: in vivo, rat
[4] = tested on: menadione reductase (EC 1.6.5.2); experiment: Induction of menadione reductase in tissues; assay type: in vivo, rat; conditions: for Hepatic menadione reductase: measured at 48 hours
[5] = 3-MC 2.5 mg i.v. on day 0 and day 1, tissues day 2, eight rats
[6] = rats bearing mammary cancers, fed 3-MC 10 mg, day 1, vs rats without 3-MC

Cc1ccc2cc3c(ccc4ccccc43)c3c2c1CC3 [3-MC, 3-Methylcholanthrene]
Change in concentration of lactic dehydrogenase in liver (lactic dehydrogenase): no significantchange
Solubility w/v in sesame oil [1]: ~1.25 per cent
Prevention of adrenal injury by 7,12-DMBA (adrenal cortex [2]): prevented adrenal injury
Adrenal protection (adrenal cortex [3]; 3-MC 0.5 mg on day -1 by feeding or injection in muscle or in vein): complete adrenal protection
Duration of adrenal protection (adrenal cortex [3]; 3-MC 1 mg i.v., apoplexy when 7,12-DMBA injected on day 3): 2 days
Duration of adrenal protection (adrenal cortex [3]; 3-MC 5 mg i.v., apoplexy when 7,12-DMBA injected on day 8): 6 days
Adrenal status (adrenal cortex [3]; 3-MC 2, 5, or 10 mg i.v. in the same emulsion with 7,12-DMBA 5 mg (simultaneous)): adrenal apoplexy in all of the animals
Duration of adrenal protection (adrenal cortex [3]; 3-MC small dose (2 mg) i.v., Discussion): 2 days
Adrenal status (adrenal cortex [3]; Table IV, 3-MC 0.5 mg i.v. at -1 hr before 7,12-DMBA 5 mg i.v.): +
Adrenal status (adrenal cortex [3]; Table IV, 3-MC 0.5 mg i.v. at -2 hrs before 7,12-DMBA 5 mg i.v.): +
Adrenal status (adrenal cortex [3]; Table IV, 3-MC 0.5 mg i.v. at -3 hrs before 7,12-DMBA 5 mg i.v.): 0
Adrenal status (adrenal cortex [3]; Table IV, 3-MC 0.5 mg i.v. at -4 hrs before 7,12-DMBA 5 mg i.v.): 0
Adrenal status (adrenal cortex [3]; Table IV, 3-MC 1 mg i.v. at -1 hr before 7,12-DMBA 5 mg i.v.): +
Adrenal status (adrenal cortex [3]; Table IV, 3-MC 1 mg i.v. at -2 hrs before 7,12-DMBA 5 mg i.v.): +
Adrenal status (adrenal cortex [3]; Table IV, 3-MC 1 mg i.v. at -3 hrs before 7,12-DMBA 5 mg i.v.): 0
Adrenal status (adrenal cortex [3]; Table IV, 3-MC 1 mg i.v. at -4 hrs before 7,12-DMBA 5 mg i.v.): 0
Adrenal status (adrenal cortex [3]; Table IV, 3-MC 2 mg i.v. at -1 hr before 7,12-DMBA 5 mg i.v.): +
Adrenal status (adrenal cortex [3]; Table IV, 3-MC 2 mg i.v. at -2 hrs before 7,12-DMBA 5 mg i.v.): +
Adrenal status (adrenal cortex [3]; Table IV, 3-MC 2 mg i.v. at -3 hrs before 7,12-DMBA 5 mg i.v.): 0
Adrenal status (adrenal cortex [3]; Table IV, 3-MC 2 mg i.v. at -4 hrs before 7,12-DMBA 5 mg i.v.): 0
Adrenal status (adrenal cortex [3]; Table IV, 3-MC 2.5 mg i.v. at -1 hr before 7,12-DMBA 5 mg i.v.): +
Adrenal status (adrenal cortex [3]; Table IV, 3-MC 2.5 mg i.v. at -2 hrs before 7,12-DMBA 5 mg i.v.): +
Adrenal status (adrenal cortex [3]; Table IV, 3-MC 2.5 mg i.v. at -3 hrs before 7,12-DMBA 5 mg i.v.): +
Adrenal status (adrenal cortex [3]; Table IV, 3-MC 2.5 mg i.v. at -4 hrs before 7,12-DMBA 5 mg i.v.): 0
Adrenal status (adrenal cortex [3]; Table IV, 3-MC 5 mg i.v. at -1 hr before 7,12-DMBA 5 mg i.v.): +
Adrenal status (adrenal cortex [3]; Table IV, 3-MC 5 mg i.v. at -2 hrs before 7,12-DMBA 5 mg i.v.): +
Adrenal status (adrenal cortex [3]; Table IV, 3-MC 5 mg i.v. at -3 hrs before 7,12-DMBA 5 mg i.v.): +
Adrenal status (adrenal cortex [3]; Table IV, 3-MC 5 mg i.v. at -4 hrs before 7,12-DMBA 5 mg i.v.): +
Adrenal status (adrenal cortex [3]; Table IV, 3-MC 10 mg i.v. at -1 hr before 7,12-DMBA 5 mg i.v.): +
Adrenal status (adrenal cortex [3]; Table IV, 3-MC 10 mg i.v. at -2 hrs before 7,12-DMBA 5 mg i.v.): +
Adrenal status (adrenal cortex [3]; Table IV, 3-MC 10 mg i.v. at -3 hrs before 7,12-DMBA 5 mg i.v.): +
Adrenal status (adrenal cortex [3]; Table IV, 3-MC 10 mg i.v. at -4 hrs before 7,12-DMBA 5 mg i.v.): +
Hepatic menadione reductase ([4]; 3-MC 2.5 mg i.v. at 0 hours, lipide at 24 hours, Fig. 5): 276 per cent of controls
Increase of menadione reductase in adrenal with respect to untreated controls [4, 5]: 159 per cent
Increase of menadione reductase in lung with respect to untreated controls [4, 5]: 164 per cent
Time of significant rise in menadione reductase in liver ([4]; 3-MC 2.5 mg i.v. only, Fig. 4): 4 h
Time of first rise of menadione reductase in liver ([4]; 3-MC 2.5 mg intravenous, Fig. 1): 3 h
Time of first increase of menadione reductase ([4]; 3-MC large dose (5 mg) i.v., Discussion): 4 h
Increase of menadione reductase in liver [4, 6]: +224 per cent
Increase of menadione reductase in mammary cancer [4, 6]: +275 per cent
Increase of menadione reductase in mammary gland [4, 6]: +214 per cent
Hepatic menadione reductase ([4]; sequence 3-MC 2.5 mg + 3-MC 2.5 mg i.v. at 0 and 24 hours): 387 per cent of controls
Increase of menadione reductase concentration in liver ([4]; single feeding of 3-MC 0.5 mg, 24 hours, Fig. 2): twofold
Increase of menadione reductase level in lung ([4]; single feeding of 3-MC 1 mg, 24 hours, Fig. 2): 150 per cent
